The text below walks through data of US6953800B2, “Use of selective antagonists of the α1B-adrenergic receptor for improvement of sexual dysfunction” (Recordati S.A. Chemical, priority 1999, dated 2005).

One data set has as its target T1, human α1b-adrenoceptor (Homo sapiens, UniProt P35368).
T1 construct: expressed in transfected cells
T1 sequence (P35368 1-520): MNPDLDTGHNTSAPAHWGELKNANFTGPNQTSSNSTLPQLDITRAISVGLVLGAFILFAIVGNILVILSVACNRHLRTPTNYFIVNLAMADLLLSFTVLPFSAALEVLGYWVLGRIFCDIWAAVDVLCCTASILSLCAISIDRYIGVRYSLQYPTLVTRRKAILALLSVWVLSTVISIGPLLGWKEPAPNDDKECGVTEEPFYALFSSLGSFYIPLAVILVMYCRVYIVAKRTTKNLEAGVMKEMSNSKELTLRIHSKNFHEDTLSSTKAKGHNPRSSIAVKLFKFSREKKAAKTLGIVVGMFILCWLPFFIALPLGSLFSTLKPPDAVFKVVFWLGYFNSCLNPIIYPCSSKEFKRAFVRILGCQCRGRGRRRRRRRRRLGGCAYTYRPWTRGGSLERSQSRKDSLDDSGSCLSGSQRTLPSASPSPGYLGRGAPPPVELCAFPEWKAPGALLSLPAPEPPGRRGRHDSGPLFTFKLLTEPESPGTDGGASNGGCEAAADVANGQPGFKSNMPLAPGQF
The data set is described as follows: [3H]Prazosin binding, cloned human α1b-adrenoceptor in CHO cell membranes. Particulars: CHO membranes; read-out: Affinity (Ki) α1b, human cloned receptors. Here is the method: (§1) Binding to cloned human α1-adrenoceptor subtypes was performed in membranes from CHO cells (Chinese hamster ovary cells) transfected by electroporation with DNA expressing the gene encoding each α1-adrenoceptor subtype. […] The incubation was stopped by addition of ice-cold Tris buffer and rapid filtration through 0.2% polyethyleneimine-pretreated Whatman GF/B or Schleicher & Schuell GF52 filters.
(§2) Data are expressed as mean Ki. All patents and other references cited herein are incorporated by reference in their entirety.

The next data set concerns the target T2, human α1d-adrenoceptor (Homo sapiens, UniProt P25100).
T2 construct: expressed in transfected cells
T2 sequence (P25100 1-572): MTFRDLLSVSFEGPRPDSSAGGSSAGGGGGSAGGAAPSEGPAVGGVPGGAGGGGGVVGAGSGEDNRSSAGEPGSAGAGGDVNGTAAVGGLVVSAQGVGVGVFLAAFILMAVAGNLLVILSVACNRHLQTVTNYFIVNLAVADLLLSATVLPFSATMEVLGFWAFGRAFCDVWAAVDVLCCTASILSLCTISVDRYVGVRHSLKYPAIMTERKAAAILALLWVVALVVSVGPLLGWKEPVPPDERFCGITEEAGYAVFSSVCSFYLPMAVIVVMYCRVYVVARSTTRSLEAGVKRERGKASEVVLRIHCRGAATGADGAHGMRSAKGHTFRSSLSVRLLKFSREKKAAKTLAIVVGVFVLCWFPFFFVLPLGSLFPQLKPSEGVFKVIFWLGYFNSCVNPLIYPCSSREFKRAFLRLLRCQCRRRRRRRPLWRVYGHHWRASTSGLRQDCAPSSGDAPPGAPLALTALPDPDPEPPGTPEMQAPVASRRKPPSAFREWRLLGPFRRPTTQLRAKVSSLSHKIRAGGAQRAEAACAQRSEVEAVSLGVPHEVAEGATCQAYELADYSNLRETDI
The data set is described as follows: [3H]Prazosin binding, cloned human α1d-adrenoceptor in CHO cell membranes. Particulars: read-out: Affinity (Ki) α1d, human cloned receptors. As for the experimental part: as §1, §2

A further data set addresses T3, human α1a-adrenoceptor (Homo sapiens, UniProt P35348).
T3 sequence (P35348 1-466): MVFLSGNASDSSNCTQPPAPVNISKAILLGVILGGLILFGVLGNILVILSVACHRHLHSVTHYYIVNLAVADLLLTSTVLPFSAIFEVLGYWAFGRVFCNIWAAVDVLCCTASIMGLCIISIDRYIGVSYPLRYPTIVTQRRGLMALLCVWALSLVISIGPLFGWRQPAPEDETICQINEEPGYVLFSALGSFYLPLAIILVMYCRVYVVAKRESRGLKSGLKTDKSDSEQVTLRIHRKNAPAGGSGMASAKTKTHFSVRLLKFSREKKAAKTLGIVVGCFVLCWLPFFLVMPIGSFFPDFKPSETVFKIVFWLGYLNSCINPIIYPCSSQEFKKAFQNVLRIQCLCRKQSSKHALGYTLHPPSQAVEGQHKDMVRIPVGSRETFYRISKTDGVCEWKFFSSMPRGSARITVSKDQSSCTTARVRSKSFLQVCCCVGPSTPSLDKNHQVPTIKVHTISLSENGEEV
The data set is described as follows: biochemical.

The subject of data set [1] is anaesthetised dogs. As to conditions: dog, in vivo.
Method: (§3) Male beagle dogs were anaesthetised with pentobarbital sodium (i.v. Nembutal, 35 mg/kg for induction and 4 mg/kg/h for maintenance) and intubated with an endotracheal cuffed tube to facilitate free ventilation. A collateral of the left femoral vein was cannulated with a PE catheter for infusion of the anaesthetic. Systemic BP was monitored via a Mikro-tip 6F (Millar Instruments) pressure transducer introduced into the aortic arch through the right common carotid artery. ICP was measured by means of a 20-gauge needle placed into the left or right corpus cavernosum and the same needle was used for intracavernous injection of the drugs. The needle was attached to a catheter filled with heparinized saline (25 IU/mL). […] The compounds to be tested were injected intracavernously in a volume of 0.5 ml and, after each injection, the needle was flushed with 0.5 ml of saline. The vehicles for compound dissolution were tested before the first dose of each drug. The compounds were administered in a cumulative way, with a 30-minute interval between doses. ICP (mmHg) was measured at the peak effect after the administration of the compounds. The duration of tumescence (DT, min) was measured from the beginning of the rise of ICP over its basal value up to the return to baseline. The systolic blood pressure and diastolic blood pressure (mmHg) were measured at the peak effect after the administration of compounds, in order to evaluate the effects of the compounds on BP independently from the effects on ICP. Moreover, the systolic blood pressure was measured at the time of maximal ICP value after intracavernous injection, to evaluate the ICP/BP ratios. […] The data were reported as mean ±s.e. of the mean, or percent variation (±s.e.) of the basal values.
A further data set addresses T4, bovine α1a-adrenoceptor (Bos taurus, UniProt P18130).
T4 construct: expressed in transfected cells; host or cells: COS-7 cells (transient), membranes
T4 sequence (P18130 1-466): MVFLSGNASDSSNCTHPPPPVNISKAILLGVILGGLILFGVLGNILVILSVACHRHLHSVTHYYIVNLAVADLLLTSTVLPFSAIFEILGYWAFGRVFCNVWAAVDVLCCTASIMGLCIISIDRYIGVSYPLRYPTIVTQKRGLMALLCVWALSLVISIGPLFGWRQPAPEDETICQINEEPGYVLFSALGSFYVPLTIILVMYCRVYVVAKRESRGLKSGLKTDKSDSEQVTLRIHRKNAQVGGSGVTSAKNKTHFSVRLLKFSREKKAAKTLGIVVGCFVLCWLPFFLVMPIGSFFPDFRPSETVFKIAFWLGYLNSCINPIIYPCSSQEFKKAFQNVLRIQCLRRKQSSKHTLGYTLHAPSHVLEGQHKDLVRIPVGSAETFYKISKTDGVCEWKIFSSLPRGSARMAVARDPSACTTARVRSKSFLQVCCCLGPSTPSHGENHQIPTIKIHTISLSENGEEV
Nature of the data set: [3H]Prazosin binding, bovine α1a-adrenoceptor in COS-7 cell membranes. As for the experimental part:
The incubation was stopped by addition of ice-cold Tris buffer and rapid filtration through 0.2% polyethyleneimine pretreated Whatman GF/B or Schleicher & Schuell GF52 filters.
as §2

The subject of data set [2] is anaesthetised dogs. Nature of the data set: Intracavernous and blood pressure recording in dogs. Particulars: for increase of ICP in comparison with basal ICP values: 1000 μg/kg (1000 μg given for prazosin, phentolamine) intracavernous; for effect on ICP (in words): intracavernous injection.
Method: as §3
The subject of a further data set is anaesthetised rats. The data set is described as follows: Intracavernous and blood pressure recording in rats. It counts as in vivo, rat. Particulars: for decrease of blood pressure: after injection of 1000 μg/kg intracavernous; for effect on ICP (in words): intracavernous injection; for hypotension (in words, FIG. 1): marked hypotension defined as decrease of blood pressure equal to or higher than 40%. As for the experimental part:
Rats were anaesthetised by an intraperitoneal injection of urethane (1.5 g/kg in sterile saline) and placed on an homeothermic blanket. Their temperature was maintained at 37° C. Rats were tracheotomized to facilitate spontaneous breathing and to prevent aspiration of saliva. A catheter filled with heparinized saline (25 IU/ml) was placed into the carotid to record mean blood pressure (BP, mmHg). The penis was desheathed and the corpora cavernosa were exposed. A 25-gauge stainless-steel needle was inserted into one corpus cavernosum to record intracavernous pressure (ICP in mmHg). […] Pressure catheters were connected to pressure transducers (Model 750, Elcomatic Ltd, Glasgow, UK).
Following a resting period of 10 minutes, the compound solvent was delivered intracavernously (50 μl/injection). Then, increasing doses of one compound were injected every ten minutes by the same route. Five injections (one solvent plus four cumulative doses) were performed in each rat, and five rats were used for the study of one compound. For each injection and for each compound, mean BP averaged over the ten minutes following the injection was measured. The maximal ICP value reached during the ten-minute period following an injection was also recorded. In these experiments, all the compounds tested were dissolved and diluted in propylene glycol-Sorensen solvent.

Each structure is given as a SMILES string. Where a name gives a salt, the structure may show the parent alone.

For `COc1cc2nc(N3CCN(C(=O)COc4c(OC)cccc4C(C)C)C4CCCCC43)nc(N)c2cc1OC` (racemic) [Example 4, 4-Amino-6,7-dimethoxy-2-[(±)-4-(2-isopropyl-6-methoxyphenoxyacetyl)-cis-octahydro-1-quinoxalinyl]quinazoline hydrochloride.2.5H2O], the Ki at human α1b-adrenoceptor was 0.16 nM.

With `COc1cc2nc(N3CCN(C(=O)c4ccc(C)o4)C4CCCCC43)nc(N)c2cc1OC` (racemic) [Example 5, 4-Amino-6,7-dimethoxy-2-[(±)-4-(5-methyl-2-furoyl)-cis-octahydro-1-quinoxalinyl]-quinazoline hydrochloride.2.5H2O], the Ki at human α1b-adrenoceptor came to 0.24 nM.

Take `COc1cc2nc(N3CCN(C(=O)OCc4ccccc4)C4CCCCC43)nc(N)c2cc1OC` (racemic) [Example 7, 4-Amino-6,7-dimethoxy-2-[(±)-4-benzyloxycarbonyl-cis-octahydro-1-quinoxalinyl]-quinazoline hydrochloride.0.75H2O]: the Ki on human α1b-adrenoceptor stood at 0.65 nM.

For the compound `COc1cc2nc(N3CCN(C(=O)c4ccco4)[C@H](C(=O)NC(C)(C)C)C3)nc(N)c2cc1OC` [Compound C, 4-Amino-6,7-dimethoxy-2-[(3S)-3-(t-butylcarbamoyl)-4-(2-furoyl)-1-piperazinyl]-quinazoline], the Ki on human α1b-adrenoceptor is 1.76 nM; at human α1d-adrenoceptor it was 25.1 nM; on human α1a-adrenoceptor it was 94.1 nM.

For `Cc1ccc(N(CC2=NCCN2)c2cccc(O)c2)cc1` [Phentolamine], in the data set with anaesthetised dogs [1], the “hypotension (in words)” value was “relevant hypotension”. The same compound yielded a Ki at bovine α1a-adrenoceptor of 3.22 nM. For the same compound, the ICP with anaesthetised dogs [2] (10 μg/kg intracavernous) amounted to 24.0 ± 0.0 mmHg; with anaesthetised dogs [2] (30 μg/kg intracavernous) it was 20.0 ± 2.3 mmHg; in the data set on anaesthetised dogs [2] (300 μg/kg intracavernous), 16.0 ± 2.3 mmHg; in the data set on anaesthetised dogs [2] (1000 μg/kg intracavernous), 62.7 ± 24.3 mmHg; in the data set with anaesthetised rats (10 μg/kg intracavernous) it was 12.6 ± 1.7 mmHg; in the data set on anaesthetised rats (30 μg/kg intracavernous), 10.1 ± 1.4 mmHg. For the same compound, the values for the ICP in the data set on anaesthetised rats (100 μg/kg intracavernous), in the data set with anaesthetised rats (300 μg/kg intracavernous) and in the data set with anaesthetised rats (1000 μg/kg intracavernous) were 10.5 ± 1.4 mmHg, 12.5 ± 2.3 mmHg and 20.6 ± 2.1 mmHg, respectively. In addition, the “increase of ICP in comparison with basal ICP values” in the data set with anaesthetised dogs [2] is 43 mmHg. In addition, the “DT (duration of tumescence)” value in the data set on anaesthetised dogs [2] (1000 μg/kg intracavernous) was determined as 4.2 ± 2.1 min. Besides, the “effect on ICP (in words)” value in the data set on anaesthetised dogs [2] is recorded as “increased ICP at doses that induced substained hypotension”; in the data set on anaesthetised rats, “did not modify ICP up to 300 μg/kg”. Also, the BP in the data set on anaesthetised rats (10 μg/kg intracavernous) worked out at 79.8 ± 7.3 mmHg; in the data set on anaesthetised rats (30 μg/kg intracavernous) it was 72.2 ± 4.3 mmHg; in the data set on anaesthetised rats (100 μg/kg intracavernous), 61.1 ± 7.0 mmHg; in the data set on anaesthetised rats (300 μg/kg intracavernous), 63.0 ± 2.2 mmHg; in the data set with anaesthetised rats (1000 μg/kg intracavernous), 59.8 ± 3.6 mmHg. The “decrease of blood pressure” value with anaesthetised rats is recorded as 30%. Also, the “hypotension (in words, FIG. 1)” value with anaesthetised rats is “marked hypotension”.

Consider `COc1cc2nc(N3CCN(C(=O)c4ccco4)CC3)nc(N)c2cc1OC` [Prazosin], for which the “hypotension (in words)” value in the data set on anaesthetised dogs [1] is “marked hypotension”. Also, the ICP in the data set with anaesthetised dogs [2] (30 μg/kg intracavernous) came to 25.5 ± 6.3 mmHg; in the data set with anaesthetised dogs [2] (100 μg/kg intracavernous) it was 27.0 ± 8.7 mmHg; in the data set with anaesthetised dogs [2] (300 μg/kg intracavernous), 37.5 ± 5.0 mmHg; in the data set with anaesthetised dogs [2] (1000 μg/kg intracavernous), 52.5 ± 5.0 mmHg; in the data set on anaesthetised rats (10 μg/kg intracavernous), 20.1 ± 6.4 mmHg; in the data set on anaesthetised rats (30 μg/kg intracavernous) it was 14.9 ± 3.3 mmHg. Besides, the ICP is 19.0 ± 6.6 mmHg in the data set on anaesthetised rats (100 μg/kg intracavernous), 18.9 ± 6.8 mmHg with anaesthetised rats (300 μg/kg intracavernous) and 26.9 ± 3.5 mmHg in the data set with anaesthetised rats (1000 μg/kg intracavernous). For the same compound, in the data set on anaesthetised dogs [2] (1000 μg intracavernous), the “decrease of diastolic blood pressure” value turned out to be 71 mmHg. Besides, the “increase of ICP in comparison with basal ICP values” in the data set with anaesthetised dogs [2] was found to be 36 mmHg. The “effect on ICP (in words)” value in the data set on anaesthetised dogs [2] was “increased ICP at doses that induced substained hypotension”; in the data set on anaesthetised rats, “unable to elicit any ICP increase”. The BP in the data set on anaesthetised rats (10 μg/kg intracavernous) was determined as 59.4 ± 7.7 mmHg; in the data set with anaesthetised rats (30 μg/kg intracavernous), 60.0 ± 7.4 mmHg; in the data set on anaesthetised rats (100 μg/kg intracavernous) it was 56.8 ± 7.9 mmHg; in the data set with anaesthetised rats (300 μg/kg intracavernous), 41.3 ± 3.0 mmHg; in the data set with anaesthetised rats (1000 μg/kg intracavernous), 43.7 ± 4.1 mmHg. Moreover, the “decrease of blood pressure” value in the data set on anaesthetised rats is on record as 41%. In addition, the “hypotension (in words, FIG. 1)” value in the data set with anaesthetised rats is “marked hypotension”.
